Results published in patent US8362236B2, “Macrocyclic compound” (Chugai Seiyaku Kabushiki Kaisha, priority 2007, dated 2013).

Tests used:
Human HSP90 alpha = molecular target: T1, Human HSP90 alpha (Homo sapiens, UniProt P07900); experiment: Assay for the activity of inhibiting HSP90 enzyme (ATPase, malachite green); assay type: biochemical; conditions: purified human HSP90 alpha, 1 mM ATP added, 37° C. for two hours, OD655; read-out: Enzyme-inhibiting activity (IC50, μM) Human HSP90α
T1 construct: His tag (inferred from purification on a HisPrep FF column); made in house; host or cells: E. coli BL21 codon plus (Stratagene)
Description: Introduction of pETHuHSP90a into E. coli (BL21 codon plus; Stratagene) was followed by O/N incubation in the presence of 0.1 mM IPTG, and the collected E. coli cells were disrupted by ultrasonication in a Lysis buffer (50 mM Tris-HCl (pH8.0), 10 mM MgCl2, 0.1% Triton X-100, Protease inhibitor cocktail tablets (Roche Diagnostics)). The cell lysate solution was centrifuged (10,000 rpm×30 minutes), and the supernatant obtained after centrifugation was used as a crude extract. The crude extract was fractionated using HisPrep FF column and HiTrap Q column (Amersham) to prepare a purified enzyme solution.
An enzyme solution for assays was prepared by dilution of the purified enzyme solution using an assay buffer (50 mM Tris HCl pH7.6, 20 mM KCl, 5 mM MgCl2).
10 μL each of various concentrations of the test substances (10% DMSO solution) was added to each well, and for the positive control wells, 10 μL of 10% DMSO was added. 10 μL of 10% DMSO was also added to the negative control well.
10 μL of 1 mM ATP was added to all of the wells, and the reaction was carried out at 37° C. for two hours.

HCT116 cells = experiment: Measurement of cell growth inhibition (Cell Counting Kit-8, four days); conditions: Homo sapiens, HCT-116, 96 h, read-out: Cell growth-inhibiting activity (IC50, μM) Colon cancer HCT116, HCT116 colon cancer cell line, four days culture;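 further: cells exposed to a range of test concentrations at 37 °C in 5% CO2 for four days, then growth read as absorbance with Cell Counting Kit-8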
Description: Cells were maintained under conditions recommended by the provider of each cell line. Cells suspended in a medium were added to solutions containing various concentrations of the test substance, and the cells were cultured at 37° C. in a 5% CO2 incubator. Four days later, Cell Counting Kit-8 was added, and absorbance measurements were taken following the protocol included in the kit.

SMILES	IC50 (Human HSP90 alpha) [µM]	IC50 (HCT116 cells) [µM]
Cc1cc(C)c2cc1C(=O)N(C)CCCNC(=O)CCSc1cc-2nc(N)n1 [Compound 3, 4-amino-15,18,20-trimethyl-7-thia-3,5,11,15-tetraazatricyclo[15.3.1.1^2,6]docosa-1(20),2(22),3,5,17(21),18-hexane-10,16-dione]	1.6	0.92
Cc1cc(C)c2cc1C(=O)NCCNC(=O)CCCSc1cc-2nc(N)n1 [Compound 4, 4-amino-18,20-dimethyl-7-thia-3,5,12,15-tetraazatricyclo[15.3.1.1^2,6]docosa-1(20),2(22),3,5,17(21),18-hexaene-11,16-dione]	1	
Cc1cc(C)c2cc1C(=O)NCCCCNC(=O)CCCSc1cc-2nc(N)n1 [Compound 5, 4-amino-20,22-dimethyl-7-thia-3,5,12,17-tetraazatricyclo[17.3.1.1^2,6]tetracosa-1(22),2(24),3,5,19(23),20-hexane-11,18-dione]	1	0.5
Cc1cc(C)c2cc1C(=O)NCCCCCNC(=O)C(C)CSc1cc-2nc(N)n1 (centres unmarked) [Compound 7, 4-amino-9,20,22-trimethyl-7-thia-3,5,11,17-tetraazatricyclo[17.3.1.1^2,6]tetracosa-1(22),2(24),3,5,19(23),20-hexaene-10,18-dione]	1.6	0.4
Nc1nc2cc(n1)-c1cc(c(Cl)cc1Cl)C(=O)NCCCNC(=O)CCS2 [Compound 8, 4-amino-18,20-dichloro-7-thia-3,5,11,15-tetraazatricyclo[15.3.1.1^2,6]docosa-1(20),2(22),3,5,17(21),18-hexaene-10,16-dione]	2	0.21
COc1cc(C)c2cc1C(=O)NCCCC(=O)NCCSc1cc-2nc(N)n1 [Compound 9, 4-amino-18-methoxy-20-methyl-7-thia-3,5,10,15-tetraazatricyclo[15.3.1.1^2,6]docosa-1(20),2(22),3,5,17(21),18-hexaene-11,16-dione]	1.9	> 10
COc1cc(C)c2cc1C(=O)N(C)CCCC(=O)NCCSc1cc-2nc(N)n1 [Compound 10, 4-amino-18-methoxy-15,20-dimethyl-7-thia-3,5,10,15-tetraazatricyclo[15.3.1.1^2,6]docosa-1(20),2(22),3,5,17(21),18-hexaene-11,16-dione]	1.1	> 10
Cc1cc(C)c2cc1C(=O)NCCCC(=O)NCCSc1cc-2nc(N)n1 [Compound 11, 4-amino-18,20-dimethyl-7-thia-3,5,10,15-tetraazatricyclo[15.3.1.1^2,6]docosa-1(20),2(22),3,5,17(21),18-hexaene-11,16-dione]	1.2	
Cc1cc(C)c2cc1C(=O)NCCC(=O)NCCSc1cc-2nc(N)n1 [Compound 12, 4-amino-17,19-dimethyl-7-thia-3,5,10,14-tetraazatricyclo[14.3.1.1^2,6]henicosa-1(19),2(21),3,5,16(20),17-hexaene-11,15-dione]	1.3	0.72
Cc1cc(C)c2cc1C(=O)N(C)CCCC(=O)NCCSc1cc-2nc(N)n1 [Compound 13, 4-amino-15,18,20-trimethyl-7-thia-3,5,10,15-tetraazatricyclo[15.3.1.1^2,6]docosa-1(20),2(22),3,5,17(21),18-hexaene-11,16-dione]	1.2	4.4
Cc1cc(C)c2cc1C(=O)NCCCCCC(=O)NCCSc1cc-2nc(N)n1 [Compound 14, 4-amino-20,22-dimethyl-7-thia-3,5,10,17-tetraazatricyclo[17.3.1.1^2,6]tetracosa-1(22),2(24),3,5,19(23),20-hexaene-11,18-dione]	0.8	0.15
Nc1nc2cc(n1)-c1cc(c(Cl)cc1Cl)C(=O)NCCCC(=O)NCCS2 [Compound 15, 4-amino-18,20-dichloro-7-thia-3,5,10,15-tetraazatricyclo[15.3.1.1^2,6]docosa-1(20),2(22),3,5,17(21),18-hexaene-11,16-dione]	1.6	0.14
COc1cc(C)c2cc1C(=O)NCCCOc1cccc(c1)Sc1cc-2nc(N)n1 [Compound 16, 4-amino-20-methoxy-22-methyl-13-oxa-7-thia-3,5,17-triazatricyclo[17.3.1.1^2,6.1^8,12]pentacosa-1(22),2(24),3,5,8(25),9,11,19(23),20-nonaen-18-one]	1.6	
CCOc1cc(C)c2cc1C(=O)NCCCOc1cccc(c1)Sc1cc-2nc(N)n1 [Compound 17, 4-amino-20-ethoxy-22-methyl-13-oxa-7-thia-3,5,17-triazatricyclo[17.3.1.1^2,6.1^8,12]pentacosa-1(22),2(24),3,5,8(25),9,11,19(23),20-nonaen-18-one]	1.3	
Nc1nc2cc(n1)-c1cc(c(Cl)cc1Cl)OCCCCOc1cccc(c1)S2 [Compound 21, 4-amino-20,22-dichloro-13,18-dioxa-7-thia-3,5-diazatricyclo[17.3.1.1^2,6.1^8,12]pentacosa-1(23),2,4,6(24),8,10,12(25),19,21-nonaene]	1.8	
Nc1nc2cc(n1)-c1cc(c(Cl)cc1Cl)OCCCCCOc1cccc(c1)S2 [Compound 22, 4-amino-21,23-dichloro-13,19-dioxa-7-thia-3,5-diazatricyclo[18.3.1.1^2,6.1^8,12]hexacosa-1(24),2,4,6(24),8,10,12(26),20,22-nonaene]	1.7	2.4
Nc1nc2cc(n1)-c1cc(c(Cl)cc1Cl)OCCOCCOc1cccc(c1)S2 [Compound 23, 21,23-dichloro-13,16,19-trioxa-7-thia-3,5-diazatricyclo[18.3.1.1^2,6.1^8,12]hexacosa-1(23),2(25),3,5,8(26),9,11,20(24),21-nonaen-4-ylamine]	1.1	1.4
Nc1nc2nc(n1)-c1cc(c(Cl)cc1Cl)OCCCCOc1cccc(c1)S2 [Compound 26, 20,22-dichloro-13,18-dioxa-7-thia-3,5,24-triazatricyclo[17.3.1.1^2,6.1^8,12]pentacosa-1(22),2(24),3,5,8(25),9,11,19(23),20-nonaen-4-ylamine]	3.3	7.4
Nc1nc2nc(n1)-c1cc(c(Cl)cc1Cl)OCCOCCOc1cccc(c1)S2 [Compound 27, 21,23-dichloro-13,16,19-trioxa-7-thia-3,5,25-triazatricyclo[18.3.1.1^2,6.1^8,12]hexacosa-1(23),2(25),3,5,8(25),9,11,20(24),21-nonaen-4-ylamine]	2.1	1.4
Nc1nc2cc(n1)-c1cc(c(Cl)cc1Cl)C(=O)NCCCCCC(=O)NCCS2 [Compound 28, 4-amino-20,22-dichloro-7-thia-3,5,10,17-tetraazatricyclo[17.3.1.1^2,6]tetracosa-1(22),2(24),3,5,19(23),20-hexaene-11,18-dione]	1.4	0.2
Cc1cc(C)c2cc1C(=O)NCCOCCNC(=O)CCSc1cc-2nc(N)n1 [Compound 29, 4-amino-20,22-dimethyl-14-oxa-7-thia-3,5,11,17-tetraazatricyclo[17.3.1.1^2,6]tetracosa-1(22),2(24),3,5,19(23),20-hexaene-10,18-dione]	1.7	0.3
Cc1cc(C)c2cc1C(=O)NCCN(C)CCNC(=O)CCSc1cc-2nc(N)n1 [Compound 30, 4-amino-14,20,22-trimethyl-7-thia-3,5,11,14,17-pentaazatricyclo[17.3.1.1^2,6]tetracosa-1(22),2(24),3,5,19(23),20-hexaene-10,18-dione]	1.8	0.5
Cc1cc(C)c2cc1C(=O)NC[C@@H](O)CNC(=O)CCSc1cc-2nc(N)n1 [Compound 31, (S)-4-amino-13-hydroxy-18,20-dimethyl-7-thia-3,5,11,15-tetraazatricyclo[15.3.1.1^2,6]docosa-1(20),2(22),3,5,17(21),18-hexaene-10,16-dione]	0.8	1.3
Cc1cc(C)c2cc1C(=O)NCCCN(C)C(=O)CCSc1cc-2nc(N)n1 [Compound 32, 4-amino-11,18,20-trimethyl-7-thia-3,5,11,15-tetraazatricyclo[15.3.1.1^2,6]docosa-1(20),2,4,6(22),17(21),18-hexaene-10,16-dione]	0.5	0.4
Cc1cc(C)c2cc1C(=O)NCCCN(CCO)C(=O)CCSc1cc-2nc(N)n1 [Compound 34, 4-amino-11-(2-hydroxyethyl)-18,20-dimethyl-7-thia-3,5,11,15-tetraazatricyclo[15.3.1.1^2,6]docosa-1(20),2,4,6(22),17(21),18-hexaene-10,16-dione]	2.8	1.1
Cc1cc(C)c2cc1C(=O)NCCCN(CCN1CCOCC1)C(=O)CCSc1cc-2nc(N)n1 [Compound 36, 4-amino-18,20-dimethyl-11-(2-morpholin-4-ylethyl)-7-thia-3,5,11,15-tetraazatricyclo[15.3.1.1^2,6]docosa-1(20),2,4,6(22),17(21),18-hexaene-10,16-dione]	0.7	1.8
